Where only a bound is given, the exact number is not on record here.

Data on 25 compounds can be found in PMC6943726, “Discovery of 8-Amino-Substituted 2-Phenyl-2,7-Naphthyridinone Derivatives as New c-Kit/VEGFR-2 Kinase Inhibitors” (Molecules, 2019).

Common to all, as to format: biochemical
One test deals with T1, MET (Homo sapiens, UniProt P08581).
T1 construct: was evaluated using an enzyme assay with a recombinant kinase domain; purchased Invitrogen (Carlsbad, CA, US)
In words: HTRF enzyme assay with recombinant MET kinase domain. The settings on record: purified recombinant MET kinase domain, read-out: Inhibitory Activity, IC50, MET. As to the method: (§1) The ability of the synthesized compounds to inhibit MET, c-Kit, and VEGFR-2 activities was evaluated using an enzyme assay with a recombinant kinase domain [29]. Based on the structure activity relationship (SAR) of MET inhibitors, we proposed that the removal of the key diaryl ether fragments in compound 3 would result in a loss of MET activity.
(§2) The ability of compounds to inhibit the activity of three kinases (MET, c-Kit, and VEGFR-2) was tested in vitro [30]. Enzyme assays were run in homogeneous time-resolved fluorescence (HTRF) format in 384-well microtiter plates using purified kinases purchased from Invitrogen (Carlsbad, CA, US). The HTRF KinEASE TK kit (contains substrate-biotin, antibody-cryptate, streptavidin-XL665, 5×enzymatic buffer, and detection buffer) was purchased from Cisbio (Codolet, France), and the kinase assays were performed according to the manufacturer’s instructions. After the kinases and the compounds incubated at 25~30 °C for 5 min, the reactions were initiated by the addition of 2 μL of mixed substrate solution (mixed solution of ATP (Sigma, Shanghai, China) and substrate-biotin). The final concentrations of kinases were at EC80 and the total reaction volume was 8 μL. Plates were incubated at 30 °C for 30~60 min, then the reactions were quenched by the addition 8 μL mixed detection solution (mixed solution of antibody-cryptate and streptavidin-XL665 in detection buffer). The fluorescence excitation wavelength was […]. The fluorescence at 665 nm (acceptor emission wavelength) and 620 nm (donor emission wavelength) was measured with a PHERAstar FS plate reader (BMG, LABTECH, Ortenberg, Germany) using a time delay of 50 μs. All kinase assays were conducted using ATP concentrations below the enzyme Kmapp and kinase-specific biotinylated substrate peptides.
(§3) The data for dose responses were plotted as percentage of inhibition calculated with the data reduction formula 100 × [1 − (U1 − C2)/(C1 − C2)] versus concentration of compound, where U is the emission ratio of 665 nm and 620 nm of test sample, C1 is the average value obtained for solvent control (2% DMSO), and C2 is the average value obtained for no reaction control (no kinase sample). Inhibition curves were generated by plotting percentage of control activity versus log10 of the concentration of each […]. The IC50 values were calculated by nonlinear regression with Graphpad Prism 5 (GraphPad Software, San Diego, CA).
Background: Time-resolved FRET reads energy transfer from a long-lived donor to a nearby acceptor.

The target in a further test is T2, VEGFR-2 (Homo sapiens, UniProt P35968).
T2 construct: was evaluated using an enzyme assay with a recombinant kinase domain; purchased Invitrogen (Carlsbad, CA, US)
T2 sequence (P35968 834-1162 limits assumed): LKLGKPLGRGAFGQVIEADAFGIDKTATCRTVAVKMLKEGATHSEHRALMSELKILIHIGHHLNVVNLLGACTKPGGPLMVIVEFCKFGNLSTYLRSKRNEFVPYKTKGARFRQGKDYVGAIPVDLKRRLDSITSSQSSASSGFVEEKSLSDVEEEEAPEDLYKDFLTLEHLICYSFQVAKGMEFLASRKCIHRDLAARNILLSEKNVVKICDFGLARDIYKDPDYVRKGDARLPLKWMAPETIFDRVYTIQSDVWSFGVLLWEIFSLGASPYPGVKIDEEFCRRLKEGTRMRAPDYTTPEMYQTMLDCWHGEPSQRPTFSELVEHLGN
In words: HTRF enzyme assay with recombinant VEGFR-2 kinase domain. Conditions: for IC50: purified recombinant VEGFR-2 kinase domain, HTRF, read-out: Inhibitory Activity, IC50, VEGFR-2. As to the method: as §1, §2, §3

The next test has as its target T3, c-Kit (Homo sapiens, UniProt P10721).
T3 construct: was evaluated using an enzyme assay with a recombinant kinase domain; purchased Invitrogen (Carlsbad, CA, US)
In words: HTRF enzyme assay with recombinant c-Kit kinase domain. Conditions: for IC50: purified recombinant c-Kit kinase domain, HTRF, read-out: Inhibitory Activity, IC50, c-Kit. As to the method:
as §1, §2, §3

Where [1] appears, read: ratio of IC50 values vs compound 3.

T1 sequence (P08581 1078-1345 limits assumed): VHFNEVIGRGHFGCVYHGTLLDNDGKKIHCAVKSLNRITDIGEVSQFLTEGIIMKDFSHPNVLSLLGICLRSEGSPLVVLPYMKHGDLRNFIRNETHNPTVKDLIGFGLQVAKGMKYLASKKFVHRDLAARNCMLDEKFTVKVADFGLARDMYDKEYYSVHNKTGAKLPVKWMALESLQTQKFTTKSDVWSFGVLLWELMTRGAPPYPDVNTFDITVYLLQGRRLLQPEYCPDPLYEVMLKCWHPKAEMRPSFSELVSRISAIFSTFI
T3 sequence (P10721 589-937 limits assumed): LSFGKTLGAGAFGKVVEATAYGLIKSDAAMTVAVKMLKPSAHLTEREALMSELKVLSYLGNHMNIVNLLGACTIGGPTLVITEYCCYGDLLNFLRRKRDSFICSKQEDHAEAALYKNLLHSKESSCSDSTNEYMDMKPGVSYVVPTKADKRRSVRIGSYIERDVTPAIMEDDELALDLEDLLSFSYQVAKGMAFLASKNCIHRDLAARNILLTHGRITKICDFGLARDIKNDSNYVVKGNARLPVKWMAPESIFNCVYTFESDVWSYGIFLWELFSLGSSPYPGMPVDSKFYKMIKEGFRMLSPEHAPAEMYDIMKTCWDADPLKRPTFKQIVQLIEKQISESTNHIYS

For the compound `Nc1nccc(Oc2ccc(Nc3nccc4ccn(-c5ccc(F)cc5)c(=O)c34)cc2F)c1Cl` [Compound 3, reference compound], the IC50 (commonly the concentration at which inhibition is half-maximal) is 0.0099 µM on MET, 0.28 µM at VEGFR-2 and 0.33 µM at c-Kit.
Taken in the same sequence, the figures for `O=c1c2c(Nc3ccccc3)nccc2ccn1-c1ccc(F)cc1` [Compound 9a, 2-(4-fluorophenyl)-8-(phenylamino)-2,7-naphthyridin-1(2H)-one] were greater than 5 µM, greater than 5 µM and greater than 5 µM.
For `Cc1cccc(C)c1Nc1nccc2ccn(-c3ccc(F)cc3)c(=O)c12` [Compound 9b, 8-((2,6-dimethylphenyl)amino)-2-(4-fluorophenyl)-2,7-naphthyridin-1(2H)-one] the same measures were greater than 5 µM, greater than 5 µM and greater than 5 µM.
For `O=c1c2c(Nc3c(Cl)cccc3Cl)nccc2ccn1-c1ccc(F)cc1` [Compound 9c, 8-((2,6-dichlorophenyl)amino)-2-(4-fluorophenyl)-2,7-naphthyridin-1(2H)-one] the same measures were greater than 5 µM, 0.691 µM and greater than 5 µM.
Regarding `O=c1c2c(Nc3cccnc3)nccc2ccn1-c1ccc(F)cc1` [Compound 9d, 2-(4-fluorophenyl)-8-(pyridin-3-ylamino)-2,7-naphthyridin-1(2H)-one], the IC50 on MET, at VEGFR-2 and on c-Kit was greater than 5 µM in each case.
As for `O=c1c2c(Nc3ccc4ccncc4c3)nccc2ccn1-c1ccc(F)cc1` [Compound 9e, 2-(4-fluorophenyl)-8-(isoquinolin-7-ylamino)-2,7-naphthyridin-1(2H)-one], the concentration for half-maximal inhibition (IC50) on MET, at VEGFR-2 and on c-Kit was greater than 5 µM in each case.
Turning to `O=c1c2c(NCc3ccccc3)nccc2ccn1-c1ccc(F)cc1` [Compound 9f, 8-(benzylamino)-2-(4-fluorophenyl)-2,7-naphthyridin-1(2H)-one], the IC50 at MET, at VEGFR-2 and at c-Kit was greater than 5 µM each time.
As for `O=c1c2c(NCc3ccncc3)nccc2ccn1-c1ccc(F)cc1` [Compound 9g, 2-(4-fluorophenyl)-8-((pyridin-4-ylmethyl)amino)-2,7-naphthyridin-1(2H)-one], the IC50 on MET was greater than 5 µM; at VEGFR-2, 0.601 µM; on c-Kit, 0.832 µM. In addition, the “c-Kit potency, fold less potent than compound 3” value on c-Kit (setting [1]) came out at 2.5 fold.
Turning to `O=c1c2c(NCc3cccnc3)nccc2ccn1-c1ccc(F)cc1` [Compound 9h, 2-(4-fluorophenyl)-8-((pyridin-3-ylmethyl)amino)-2,7-naphthyridin-1(2H)-one], the 50% inhibitory concentration (IC50) at MET, at VEGFR-2 and on c-Kit was greater than 5 µM throughout.
With `O=c1c2c(NCc3ccco3)nccc2ccn1-c1ccc(F)cc1` [Compound 9i, 2-(4-fluorophenyl)-8-((furan-2-ylmethyl)amino)-2,7-naphthyridin-1(2H)-one], the IC50 at MET, at VEGFR-2 and at c-Kit was greater than 5 µM each time.
In the case of `O=c1c2c(NCc3cccc4ccccc34)nccc2ccn1-c1ccc(F)cc1` [Compound 9j, 2-(4-fluorophenyl)-8-((naphthalen-1-ylmethyl)amino)-2,7-naphthyridin-1(2H)-one], the half-inhibitory concentration (IC50) at MET, on VEGFR-2 and on c-Kit was greater than 5 µM throughout.
For the compound `O=c1c2c(NCc3ccnc4ccccc34)nccc2ccn1-c1ccc(F)cc1` [Compound 9k, 2-(4-fluorophenyl)-8-((quinolin-4-ylmethyl)amino)-2,7-naphthyridin-1(2H)-one], the half-inhibitory concentration (IC50) on MET was greater than 5 µM; at VEGFR-2, 0.238 µM; on c-Kit it was 0.0085 µM. Besides, the “c-Kit potency, fold more potent than compound 3” value on c-Kit (setting [1]) was 38.8 fold.
For the compound `Cc1cc2ccnc(Nc3cccnc3)c2c(=O)n1-c1ccc(F)cc1` [Compound 10a, 2-(4-fluorophenyl)-3-methyl-8-(pyridin-3-ylamino)-2,7-naphthyridin-1(2H)-one], the half-maximal inhibitory concentration (IC50) on MET, on VEGFR-2 and at c-Kit was greater than 5 µM throughout.
For the compound `Cc1cc2ccnc(NCc3cccnc3)c2c(=O)n1-c1ccc(F)cc1` [Compound 10b, 2-(4-fluorophenyl)-3-methyl-8-((pyridin-3-ylmethyl)amino)-2,7-naphthyridin-1(2H)-one], the IC50 on MET, on VEGFR-2 and at c-Kit was greater than 5 µM in each case.
As to `Cc1cc2ccnc(NCc3ccncc3)c2c(=O)n1-c1ccc(F)cc1` [Compound 10c, 2-(4-fluorophenyl)-3-methyl-8-((pyridin-4-ylmethyl)amino)-2,7-naphthyridin-1(2H)-one], the IC50 at MET, at VEGFR-2 and at c-Kit was greater than 5 µM each time.
With `Cc1cc2ccnc(NCc3ccnc4ccccc34)c2c(=O)n1-c1ccc(F)cc1` [Compound 10d, 2-(4-fluorophenyl)-3-methyl-8-((quinolin-4-ylmethyl)amino)-2,7-naphthyridin-1(2H)-one], the half-maximal inhibitory concentration (IC50) at MET is greater than 5 µM; on VEGFR-2, 0.208 µM; at c-Kit, 1.61 µM. On c-Kit, the “c-Kit inhibitory activity (in words)” value is listed as “weak c-Kit inhibitory activity”.
Consider `Cc1cc2ccnc(Nc3cccnc3)c2c(=O)n1-c1ccccc1` [Compound 10e, 3-methyl-2-phenyl-8-(pyridin-3-ylamino)-2,7-naphthyridin-1(2H)-one], for which the IC50 on MET, on VEGFR-2 and on c-Kit was greater than 5 µM each time.
For the compound `Cc1cc2ccnc(NCc3cccnc3)c2c(=O)n1-c1ccccc1` [Compound 10f, 3-methyl-2-phenyl-8-((pyridin-3-ylmethyl)amino)-2,7-naphthyridin-1(2H)-one], the IC50 at MET, at VEGFR-2 and on c-Kit was greater than 5 µM each time.
`Cc1cc2ccnc(NCc3ccncc3)c2c(=O)n1-c1ccccc1` [Compound 10g, 3-methyl-2-phenyl-8-((pyridin-4-ylmethyl)amino)-2,7-naphthyridin-1(2H)-one]: the 50% inhibitory concentration (IC50) on MET, at VEGFR-2 and at c-Kit was greater than 5 µM each time.
On to `Cc1cc2ccnc(NCc3ccnc4ccccc34)c2c(=O)n1-c1ccccc1` [Compound 10h, 3-methyl-2-phenyl-8-((quinolin-4-ylmethyl)amino)-2,7-naphthyridin-1(2H)-one], for which the values for the concentration for half-maximal inhibition (IC50) at MET, on VEGFR-2 and at c-Kit were greater than 5 µM, 1.03 µM and greater than 5 µM, respectively.
Take `Cc1cc2ccnc(Nc3cccnc3)c2c(=O)n1-c1ccc(Cl)cc1` [Compound 10i, 2-(4-chlorophenyl)-3-methyl-8-(pyridin-3-ylamino)-2,7-naphthyridin-1(2H)-one]: the IC50 at MET, at VEGFR-2 and at c-Kit was greater than 5 µM in each case.
In the case of `Cc1cc2ccnc(NCc3cccnc3)c2c(=O)n1-c1ccc(Cl)cc1` [Compound 10j, 2-(4-chlorophenyl)-3-methyl-8-((pyridin-3-ylmethyl)amino)-2,7-naphthyridin-1(2H)-one], the IC50 at MET, at VEGFR-2 and on c-Kit was greater than 5 µM in each case.
On to `Cc1cc2ccnc(NCc3ccncc3)c2c(=O)n1-c1ccc(Cl)cc1` [Compound 10k, 2-(4-chlorophenyl)-3-methyl-8-((pyridin-4-ylmethyl)amino)-2,7-naphthyridin-1(2H)-one], for which the IC50 at MET is greater than 5 µM; at VEGFR-2, 0.263 µM; at c-Kit, greater than 5 µM.
`Cc1cc2ccnc(NCc3ccnc4ccccc34)c2c(=O)n1-c1ccc(Cl)cc1` [Compound 10l, 2-(4-chlorophenyl)-3-methyl-8-((quinolin-4-ylmethyl)amino)-2,7-naphthyridin-1(2H)-one]: the values for the IC50 at MET, on VEGFR-2 and at c-Kit were greater than 5 µM, 0.0565 µM and 0.107 µM, respectively. Moreover, the “VEGFR-2 potency, fold more potent than compound 3” value on VEGFR-2 (setting [1]) was 5.0–8.8 fold. The “c-Kit inhibitory activity (in words)” value on c-Kit was “slightly stronger c-Kit inhibitory activity than compound 3”.
For `Cc1cc2ccnc(Nc3cccnc3)c2c(=O)n1-c1ccc(OC(F)(F)F)cc1` [Compound 10m, 3-methyl-8-(pyridin-3-ylamino)-2-(4-(trifluoromethoxy)phenyl)-2,7-naphthyridin-1(2H)-one], the half-maximal inhibitory concentration (IC50) on MET, on VEGFR-2 and at c-Kit was greater than 5 µM each time.
